# Reference: patent US9443060B2, “Method and system to provide personalized pharmaceutical compositions and dosages” (Volant Holdings GMBH, priority 2009, dated 2016)
# Entries after “also recorded” stand apart in the source; their conditions may differ. Like-named read-outs stand apart in the source and are kept apart here.
# Legend:
# caloric intake = conditions: Lee and Morley, T2D, cited from earlier work
# metabolic syndrome = assay: FS index / neural net model of cardiovascular risk in metabolic syndrome patient populations; assay type: in vivo, human
# Experimental: The FS index of MS comprises the following parameters: Fasting Blood Glucose, Fasting Insulin, HBA1c, BMI, AST, Triglycerides, Glucose Supply-Demand (S/D) index, and in certain cases, Proinsulin. Each parameter was mathematically arranged to increase as MS worsened, and weighted approximately equally in the prediction of MS progression and risk for CV events. […] FS index values were calculated from serial laboratory and clinical data over timeframes ranging between 2 and 10 years.
# Neural Net Models and Data Display Methods. […] Unless otherwise stated, standard deviations (z-score) vs. time are presented in the individual and mean population graphics.
# For purposes of analysis, clinical and laboratory parameters were converted into modified z-scores as follows: • A mean normal value (described as “mean” in the following) was selected based on review of literature and various published laboratory compendia. The Standard Deviation (SD) of each parameter was set to one half of the normal range. The modified z-score is calculated as follows: z=(Patient value−“mean”)/SD • On the graphs, the z-score is reported as the number of SD.
# The FS index considered the following: Fasting Blood Glucose, Fasting Insulin, HBA1c, BMI, AST, Triglycerides, Glucose Supply-Demand (S/D) index, and in some cases Proinsulin. […] Each of these parameters was mathematically arranged to increase as Metabolic Syndrome worsened, and weighted approximately equally in the prediction of Metabolic Syndrome progression and risk for CV events.
# The FS index was then applied to well-studied patient populations using a neural net model.
# [formula] Where FBG is Fasting Blood Glucose in mg/dl and normal value is 100 mg/dl TG is Triglycerides in mg/dl normal value is <150 HBA1c is hemoglobin A1c in %, normal value is <6% BMI is body mass index as kg/m2 where a normal value is 20 and obese begins above 25 AST is Aspartate Transferase also called SGOT in IU/liter and a normal value is 5-50 FB insulin is fasting Blood insulin concentration in nmol/liter, a normal value is 4.0
structure (smiles),measurement,setting,value
CN(C)C(=N)N=C(N)N [Metformin],reduction of total caloric intake during the 30 min period,caloric intake; metformin 850 mg for 3 days,30%
same,reduction of total caloric intake during the 30 min period,caloric intake; metformin 1700 mg for 3 days,50%
same,FS index response to treatment,"metabolic syndrome; normal 20-50, 61 T2D on metformin, 100 RYGB, 18 Brake, 33 exenatide, 12 sitagliptin patients",Their FS index rises; also recorded: flat or slowly rising
same,"other parameters of metabolic syndrome (BMI/weight, HBSD, lipids, NAFLD, blood pressure, insulin)",metabolic syndrome; same patient populations as FS index,"their HBSD rises, they gain weight"
